Data taken from PMC11403612, “Preparation and Preclinical Characterization of a Simple Ester for Dual Exogenous Supply of Lactate and Beta-hydroxybutyrate” (Journal of Agricultural and Food Chemistry, 2024).

Key:
[1] = Short-term pharmacokinetics of LaKe in rats (BHB and lactate levels); type: in vivo, Sprague–Dawley rats; settings: 4.5 g/kg oral
Experimental: Male Sprague–Dawley rats (300–350g, Taconic, Ry, Denmark) were kept for acclimatization at a constant temperature of 23 °C with a 12 h light-dark cycle and with unlimited access to food and water. All animal handling was in accordance with national guidelines in Denmark and the guidelines from the Directive 2010/63/EU of the European Parliament on the protection of animals used for scientific purposes, and all experiments conformed to Danish Law (Act. No. 1306 of 23/11/2007). The experimental protocol was approved by the Danish Animal Expectorate (2018-15-0201-01475).
The rats were randomly selected to receive either LaKe (n = 8) or placebo (n = 8).
Rats were anesthetized in an induction chamber with 8% Sevoflurane (Sevorane, AbbVIE A/S, Copenhagen, Denmark) mixed with oxygen saturated atmospheric air (flow: 2.0 L/min). Upon achieved anesthesia, the rats were intubated and connected to a mechanical ventilator (Ugo Basile 7025 rodent ventilator, Comerio, Varese, Italy) with an adjusted flow of 1.0L/min with 3.5% Sevoflurane. Body temperature was kept at a constant of 37 ± 1 °C with a temperature probe (UNO, Zevenaar, Holland). A PTFE-coated flexible orogastric tube (Fuchigami, Japan) was placed, and the rat was left for stabilization for 15 min. […]
Short term pharmacokinetics of LaKe in rats – Detailed protocols for LC-MS/MS and FFA analyses BHB quantification by LC-MS/MS […]

[2] = Extended pharmacokinetics of LaKe in rats (LaKe, lactate, BHB plasma levels); type: in vivo, SD rats
Experimental: (§1) Animals (SD rats, both male and female, 7–9 weeks) were individually housed from 24 h before dosing until the end of the study. Food was withdrawn the night before initiation of study; following food withdrawal, animals were maintained on glucose water containing 5% w/v glucose and 1% saline to suppress endogenous ketone production throughout the study. Food was returned 8 h post-test article dosing. Animals were monitored for distress or notable changes in behavior during the study. The animals were euthanized by CO2 inhalation 2 h after the last sample collection time point.
(§2) Blood collection was performed by jugular vein cannulation of each animal and divided into two parts. About 10–15 μL of blood was used for the analysis of glucose by glucometer measurement. About 0.20 mL of blood was collected into prechilled commercial EDTA-K2 tubes containing 5 μL of the esterase inhibitor (100 mM PMSF in ethanol, 40 mg/mL NaF and 120 mg/mL […] in water = 5:95(v/v). All blood samples were placed on wet ice until centrifugation.
At least 100 μL plasma was collected respectively and transferred into polypropylene tubes with 400 mM TTFA (2-thenoyltrifluoroacetone) in ethanol (plasma:stabilizer = 100:5 (v:v)). The final concentration of TTFA in the plasma sample from each time point was approximately 20 mM. The samples were snap frozen over dry ice and kept at −60 °C or lower until LC-MS/MS analysis for 3-hydroxybutyl 2-hydroxypropanoate (LaKe), lactate, and β-hydroxybutyrate (BHB).
Calibration curves were constructed by linear regression of the peak area of the pure calibrant samples versus the nominal analyte concentrations and based on eight points. The Lac-Phe concentrations in rat plasma samples were derived from their peak area with reference to the calibration curve.
Extended pharmacokinetics of LaKe in rats – Detailed protocols for LC-MS/MS analyses 3-hydroxybutyl 2-hydroxypropanoate (LaKe): […]
3-hydroxybutyl 2-hydroxypropanoate (LaKe) was detected by SRM. […]

blood glucose = assay: Blood glucose in extended pharmacokinetics study; type: in vivo, SD rats; settings: high-dose LaKe exposure; continuous ingestion of 5% glucose water
Experimental: as §1, §2

CC(O)CCOC(=O)C(C)O (stereo not drawn) [LaKe, 3-hydroxybutyl 2-hydroxypropanoate]
BHB levels at 120 min [1]: remained elevated | lactate levels at 120 min [1]: largely back at the baseline level | concentration at 15 min ([2]; both sexes, SD, rat, plasma, oral, 1.3 g/kg, the lower dose, 15 min): 540 nM | concentration at 30 min ([2]; both sexes, SD, rat, plasma, oral, 1.3 g/kg, the lower dose, 30 min): 260 nM | maximum average plasma level of LaKe ([2]; maximum dose of 12 g/kg): 5 µM | blood glucose (blood glucose): nonsignificant trend toward lower glucose levels
